Experimental data reported in the supplement of paper PMC10307832.

Key:
Assay in all cases: relative viability (nuclei count vs DMSO), 5 days (fraction); higher = more cells survive
[1] = compound: C1COCCN1C2=NC(=NC3=C2OC4=C3C=CC=N4)C5=CC(=CC=C5)NC(=O)C6=CN=C(C=C6)N + COc1cccc2cc(-c3nc([C@H]4CC[C@H](C(=O)O)CC4)n4ncnc(N)c34)[nH]c12 [OSI-027] (partner 0.5 µM)
In short: (§1)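 The day after seeding in 1536-well plates, lung cancer cell lines were treated by pin tool with a single drug, or with a fixed anchor-drug dose together with five library-drug doses (not always all listed) in √10 steps. After 5 days, a combined fix-and-stain solution (final 0.05% Triton X-100, 1% formaldehyde, 1 ug/ml Hoechst) was added. Nuclei counted on 4× images gave relative viability as treated counts over vehicle counts, reported as the median of duplicate plates.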

Entinostat + OSI-027 = compound: Nc1ccccc1NC(=O)c1ccc(CNC(=O)OCc2cccnc2)cc1 [Entinostat] + COc1cccc2cc(-c3nc([C@H]4CC[C@H](C(=O)O)CC4)n4ncnc(N)c34)[nH]c12 [OSI-027] (partner 0.5 µM)
In short: as §1

Entinostat + Phenformin = compound: Nc1ccccc1NC(=O)c1ccc(CNC(=O)OCc2cccnc2)cc1 [Entinostat] + N=C(N)NC(=N)NCCc1ccccc1 [Phenformin] (partner 250 µM)
In short: as §1

SGI-1776 + AZD7762 = compound: CN1CCC(CNc2ccc3ncc(-c4cccc(OC(F)(F)F)c4)n3n2)CC1 [SGI-1776] + NC(=O)Nc1cc(-c2cccc(F)c2)sc1C(=O)N[C@H]1CCCNC1 [AZD7762] (partner 0.2 µM)
In short: as §1

Cell Line | relative viability ([1]; first compound 0.02 µM) | relative viability ([1]; first compound 0.06325 µM) | relative viability ([1]; first compound 0.2 µM) | relative viability ([1]; first compound 0.6325 µM) | relative viability ([1]; first compound 2 µM) | relative viability (Entinostat + OSI-027; first compound 0.02 µM) | relative viability (Entinostat + OSI-027; first compound 0.06325 µM) | relative viability (Entinostat + OSI-027; first compound 0.2 µM) | relative viability (Entinostat + OSI-027; first compound 0.6325 µM) | relative viability (Entinostat + OSI-027; first compound 2 µM) | relative viability (Entinostat + Phenformin; first compound 0.02 µM) | relative viability (Entinostat + Phenformin; first compound 0.06325 µM) | relative viability (Entinostat + Phenformin; first compound 0.2 µM) | relative viability (Entinostat + Phenformin; first compound 0.6325 µM) | relative viability (Entinostat + Phenformin; first compound 2 µM) | relative viability (SGI-1776 + AZD7762; first compound 0.08 µM) | relative viability (SGI-1776 + AZD7762; first compound 0.8 µM) | relative viability (SGI-1776 + AZD7762; first compound 2.53 µM) | relative viability (SGI-1776 + AZD7762; first compound 8 µM)
SW 1573 | 0.592 | 0.776 | 0.75 | 0.477 | 0.371 | 0.639 | 0.832 | 0.617 | 0.598 | 0.54 | 0.38 | 0.483 | 0.41 | 0.45 | 0.382 |  |  |  | 
LU99A | 0.308 | 0.288 | 0.241 | 0.274 | 0.267 | 0.308 | 0.314 | 0.353 | 0.27 | 0.296 | 0.783 | 0.891 | 0.722 | 0.609 | 0.545 | 0.38 | 0.384 | 0.339 | 0.294
NCI-H1355 | 0.397 | 0.401 | 0.336 | 0.359 | 0.363 | 0.476 | 0.434 | 0.397 | 0.27 | 0.252 | 0.48 | 0.439 | 0.502 | 0.368 | 0.332 | 0.782 | 0.772 | 0.657 | 0.642
HARA | 0.52 | 0.609 | 0.381 | 0.391 | 0.283 | 0.448 | 0.529 | 0.551 | 0.299 | 0.194 | 0.459 | 0.441 | 0.494 | 0.364 | 0.277 | 0.345 | 0.306 | 0.292 | 0.218
LXF-289 | 0.814 | 0.884 | 0.768 | 0.748 | 0.351 | 0.795 | 0.765 | 0.894 | 0.582 | 0.395 | 0.538 | 0.554 | 0.532 | 0.414 | 0.354 | 1.06 | 1.13 | 1.16 | 1.09
201T | 0.858 | 0.743 | 0.72 | 0.515 | 0.851 | 0.92 | 0.726 | 0.619 | 0.548 | 0.45 | 0.46 | 0.414 | 0.451 | 0.382 | 0.303 | 0.581 | 0.604 | 0.644 | 0.657
HCC-827 | 0.769 | 0.851 | 0.72 | 0.684 | 0.487 | 0.713 | 0.749 | 0.688 | 0.402 | 0.292 | 0.397 | 0.381 | 0.395 | 0.357 | 0.275 | 0.25 | 0.26 | 0.241 | 0.146
NCI-H1703 |  |  |  |  |  |  |  |  |  |  |  |  |  |  |  | 0.106 | 0.114 | 0.136 | 0.106
NCI-H1975 | 0.728 | 0.708 | 0.5 | 0.388 | 0.353 | 0.532 | 0.526 | 0.467 | 0.264 | 0.209 | 0.376 | 0.348 | 0.342 | 0.238 | 0.19 | 0.749 | 0.745 | 0.631 | 0.43
NCI-H2023 | 0.369 | 0.419 | 0.277 | 0.182 | 0.167 | 0.287 | 0.29 | 0.264 | 0.12 | 0.0886 | 0.355 | 0.407 | 0.327 | 0.162 | 0.0942 |  |  |  | 
ChaGo-K-1 | 0.529 | 0.566 | 0.523 | 0.586 | 0.466 | 0.606 | 0.513 | 0.56 | 0.436 | 0.378 | 0.607 | 0.471 | 0.567 | 0.456 | 0.462 | 0.892 | 0.875 | 0.912 | 0.859
COR-L 105 | 0.623 | 0.645 | 0.576 | 0.556 | 0.414 | 0.735 | 0.875 | 0.977 | 0.688 | 0.297 | 0.499 | 0.561 | 0.45 | 0.411 | 0.23 |  |  |  | 
NCI-H2170 | 0.796 | 0.76 | 0.651 | 0.786 | 0.596 | 0.745 | 0.65 | 0.742 | 0.607 | 0.373 | 0.466 | 0.407 | 0.444 | 0.376 | 0.297 | 0.839 | 0.966 | 0.874 | 0.828
A549 |  |  |  |  |  |  |  |  |  |  | 0.166 | 0.207 | 0.197 | 0.169 | 0.101 |  |  |  | 
NCI-H1993 | 0.554 | 0.57 | 0.567 | 0.548 | 0.549 | 0.484 | 0.586 | 0.53 | 0.552 | 0.653 | 0.489 | 0.579 | 0.495 | 0.536 | 0.563 | 0.839 | 0.941 | 0.889 | 0.482
NCI-H1648 | 0.285 | 0.229 | 0.264 |  | 0.279 | 0.247 | 0.27 | 0.257 | 0.271 | 0.296 |  |  |  |  |  | 0.668 | 0.753 | 0.771 | 0.658
